According to paper PMC3632557, “Histatin 5 Resistance of Candida glabrata Can Be Reversed by Insertion of Candida albicans Polyamine Transporter-Encoding Genes DUR3 and DUR31” (PLoS ONE, 2013):

Key:
[1] = test system: C. albicans CAI4 biofilm; test: Confocal microscopy of F-Hst 5 in 24 h biofilms; assay type: cell-based, Candida albicans; conditions: FITC-labeled Hst 5 31.5 µM, 24 h biofilm
Description: (§1) CAI4, Cg10, Cg30, Cg32, BG14, Cg BG14-CaDUR3, Cg BG14-CaDUR31, and Cg BG14-Empty vector were treated with fluorescein isothiocyanate FITC-labeled Hst 5 (F-Hst 5, synthesized by Genemed Synthesis, Inc.) to observe relative binding and uptake of salivary Hst 5 as described previously. […] Cells grown overnight (A600 = 0.8–1.0) were diluted to obtain 10^6 cells/ml in NaPB. Chambered cover glass slides (Lab-TekII) were coated with concanavalin A (100 µg/ml) for 30 min and washed twice with water. Cells (1×10^6) were fixed on concanavalin A-coated slides for 30 min at room temperature. The plates were then washed twice with 10 mM NaPB followed by addition of 31 µM FITC-Hst 5. Images were captured using a Zeiss LSM 510 Meta Confocal Microscope and Plan Apochromat 63/1.4 (oil) objective. The average fluorescence intensity was calculated using ImageJ software. Confocal images of cells were compared to determine the relative binding and uptake of Hst 5. Hst 5 binding to Candida biofilms was analyzed using confocal microscopy on biofilms of CAI4 and Cg30 strains. Biofilms were formed by addition of 500 µl cells (cultured overnight in YPD at 28°C, then washed and diluted to OD600 = 1.0 in PBS) to each well of culture dishes (MatTek, MA) and incubated at 37°C for 3 h. Non-adherent cells were removed by gentle washing and 500 µl media was added to each well. The dishes were then incubated at 37°C for 24 h to allow biofilm formation. F-Hst 5 (31.5 µM) was added to each well. Biofilms were measured using a series of horizontal (x–y) optical sections with a thickness of 0.38 µm taken throughout the full length of the biofilm. Z-stack images and thickness measurements of biofilms were obtained using AxioVision 4.4 software (Carl Zeiss LSM Micro Imaging). […] The total number of F-Hst 5 labeled cells was quantified in CAI4 and Cg30 biofilms manually from three independent stacks originating at the Bottom (2–3 µm), Middle (6–8 µm) or Top (12–16 µm) regions of the biofilm. Values were plotted using Graphpad Prism 5 software.

[2] = test system: C. albicans CAI4; test: Candidacidal assay (microdilution plate); assay type: cell-based, Candida albicans; conditions: 31 µM Hst 5; 1×10^6 cells, 10 mM NaPB pH 7.2, 30°C, 30 min, colony counts after 48 h; n = 4
Description: (§2) Candidacidal assays were performed using microdilution plate assays. Briefly, single colonies of C. albicans CAI4, C. glabrata Cg10, Cg30, Cg32, and BG14 strains were inoculated in YPD media; Cg BG14-CaDUR3, Cg BG14-CaDUR31, and Cg BG14-Empty vector were inoculated in YNB media without uridine and grown overnight (A600 = 1.6–1.8). Cells were washed twice with 10 mM sodium phosphate buffer (NaPB) (pH 7.2) and cells (1×10^6) were incubated at 30°C for 30 min with different concentrations of Hst 5. Aliquots of 500 cells were spread onto YPD (WT strains) or YNB - uridine (C. glabrata expressing C. albicans DUR genes) agar plates and incubated for 48 h to visualize surviving colonies. Blocking experiments were performed using cells pre-incubated with β-1,3-glucan monoclonal antibody (Biosupplies) at room temperature for 30 min. All killing assays were performed in triplicate and repeated at least thrice. Percent cell killing was calculated as 1−(number of colonies from suspensions with Hst 5/numbers of colonies from control suspensions)×100.

[3] = test system: C. glabrata Cg 931010 (Cg10); test: Candidacidal assay (microdilution plate); assay type: cell-based, Candida glabrata; conditions: 31 µM Hst 5; 1×10^6 cells, 10 mM NaPB pH 7.2, 30°C, 30 min, colony counts; n = 4
Description: as §2

[4] = test system: C. glabrata Cg 90032 (Cg32); test: Candidacidal assay (microdilution plate); assay type: cell-based, Candida glabrata; conditions: Hst 5 up to 31 µM; 10 mM NaPB pH 7.2, 30°C, 30 min, colony counts; n = 4
Description: as §2

[5] = test system: C. glabrata BG14 cells not expressing C. albicans DUR genes; test: Candidacidal assay (microdilution plate); assay type: cell-based, Candida glabrata; conditions: Hst 5 60 µM; 10 mM NaPB pH 7.2, 30°C, 30 min, colony counts; n = 3
Description: as §2

[6] = test system: Cg BG14-CaDUR3; test: Candidacidal assay (microdilution plate); assay type: cell-based, Candida glabrata; conditions: Hst 5 60 µM; 10 mM NaPB pH 7.2, 30°C, 30 min, colony counts; n = 3
Description: as §2

[7] = test system: Cg BG14-CaDUR31; test: Candidacidal assay (microdilution plate); assay type: cell-based, Candida glabrata; conditions: Hst 5 60 µM; 10 mM NaPB pH 7.2, 30°C, 30 min, colony counts; n = 3
Description: as §2

[8] = test system: C. glabrata Cg 90030 (Cg30); test: Candidacidal assay (microdilution plate); assay type: cell-based, Candida glabrata; conditions: Hst 5 up to 31 µM; 10 mM NaPB pH 7.2, 30°C, 30 min, colony counts; n = 4
Description: as §2

[9] = test system: C. glabrata strains (ATCC 90030, 2001 and 64677); conditions: strains completely insensitive even at high concentrations; ref [10]; cited from earlier work
From the text: Histatins are basic histidine-rich proteins secreted in human parotid and submandibular-sublingual saliva in humans and higher primates. Histatin 5 (Hst 5) is a proteolytic cleavage product of the larger Histatin 3 family member, [6]. […] However, ma ...

[10] = test system: C. glabrata Cg30 biofilm; test: Confocal microscopy of F-Hst 5 in 24 h biofilms; assay type: cell-based, Candida glabrata; conditions: FITC-labeled Hst 5 31.5 µM, 24 h biofilm
Description: as §1, with “Confocal images of cells were compared to determine the relative binding and uptake of Hst 5.” left out, “Biofilms were formed by addition of 500 µl cells (cultured overnight in YPD at 28°C, then washed and diluted to OD600 = 1.0 in PBS) to each well of culture dishes (MatTek, MA) and incubated at 37°C for 3 h. Non-adherent cells were removed by gentle washing and 500 µl media was added to each well. The dishes were then incubated at 37°C for 24 h to allow biofilm formation. F-Hst 5 (31.5 µM) was added to each well.” left out, “biofilm.” for “biofilm. Z-stack images and thickness measurements of biofilms were obtained using AxioVision 4.4 software (Carl Zeiss LSM Micro Imaging).”, “Values were plotted using Graphpad Prism 5 software.” left out

[11] = test system: C. glabrata Cg10, Cg30, Cg32; test: Spermidine uptake rate; assay type: cell-based, Candida glabrata; conditions: three strains of C. glabrata; method as in earlier work
From the text: (§3) Next, we investigated the role of altered Hst 5 uptake mechanisms between C. albicans and C. glabrata as a probable reason for their differential susceptibilities to Hst 5. C. albicans contains six DUR transporter family members that are responsible for polyamine (spermidine, spermine, and putrescine) uptake. […] C. glabrata CAGL0K03157g product has 54% identity and 71% similarity with C. albicans DUR3 (orf19.781); and C. glabrata CAGL0108613g product has 51% identity and 69% similarity with C. albicans DUR31 (orf19.6656). However, C. glabrata CAGL0K03157g (CaDUR3 homologue) gene product has even higher homology with S. cerevisiae DUR3, having 65% identity and 76% similarity. The in silico predicted function of these C. glabrata proteins is transmembrane transport; however their specific functions remain uncharacterized. […] There were no significant differences in rates of spermidine uptake among the three strains of C. glabrata (0.163±0.015 nanomoles/10^6 cells/min) compared to C. albicans (0.160±0.014 nanomoles/10^6 cells/min); thus showing polyamine transporter activity is equivalent between C. albicans and C. glabrata strains in respect to spermidine.

[12] = test system: C. albicans CAI4; test: Spermidine uptake rate; assay type: cell-based, Candida albicans; conditions: method as in earlier work
From the text: as §3

Molecule	Hst 5 containing cells, total biofilm [1]	percentage of Hst 5 containing cells, bottom regions [1]	percentage of Hst 5 positive cells, middle regions (8 µm) [1]	cell death (killing) [2]	killing [3]	maximal killing [4]	killing [5]	killing [6]	killing [7]	maximal killing [8]	IC50 [9]	Hst 5 containing cells, total biofilm [10]	percentage of Hst 5-labeled cells, bottom regions (2.5 µm) [10]	rate of spermidine uptake [11]	rate of spermidine uptake [12]
Histatin 5 [Hst 5]	28%	≈ 25%	33%	65%	22%	10%	25%	43%	55%	8%	> 225 µg/mL	17%	20%		
NCCCCNCCCN [spermidine]														0.163±0.015 nanomoles/10^6 cells/min	0.160±0.014 nanomoles/10^6 cells/min
